In US20140196172A1, “Organelle Targeting Nanocarriers” (Her Majesty the Queen in Right of Canada, as Repre sented …, priority 2011, published 2014):

Experiments:
[1] = system: chloroplasts of triticale protoplasts; experiment: qRT-PCR of gfp mRNA, protoplasts transfected with pWCaadA16GFP; assay type: cell-based; details: gfp reporter construct
Excerpt: (§1) FIG. 20 is a plot showing the level of expression (fold increase, average of 4 replicates) of GFP in triticale protoplasts transfected with the pWCaadA16GFP plasmid in the presence of cTP1 (SEQ ID NO: 6), cTP2 (SEQ ID NO: 7), cTP3 (SEQ ID NO: 8), cTP4 (SEQ ID NO: 9) or cTP5 (SEQ ID NO: 10) compared to the level of expression (fold increase) of the internal control elongation factor 1a (EF1a), as measured by quantitative real time PCR of mRNA levels.
(§2) Wheat chloroplast aadA16GFP reporter plasmid (pWCaadA16GFP, FIG. 12) is a 4212 base pair wheat specific plastid transformation vector, which targets insertions into the tml-tmA inverted repeat regions of the Triticum aestivum plastid genome at nucleotides 92850-93727 and 93794-94671 (GenBank accession No. AB042240.3). A multiple cloning site is introduced following the tml target insertion sequence. The selection marker gene is an organelle codon specific aad-gfp fusion gene, which facilitates a dual selection method of spectinomycin resistance through an aadA derivative and visual detection by GFP fluorescence (GenBank accession No. ABX39486; Khan and Maliga, Nat. Biotechnol. (1999 September) 17(9): 910-5). The selection marker gene is driven by the Triticum aestivum plastid genome promoter (psbA) at nucleotides 1282-1153 (GenBank accession No. AB042240.3). The aad-gfp fusion gene is terminated with the rice psbA terminator sequence derived from chloroplast transformation vector pVSR326 nucleotides 4014-4387 (GenBank accession No. AF527485.1).
The dsDNA construct (pWMaadA16GFP for mitochondrial expression or pWCaadA16GFP for expression in chloroplasts) is combined with the mTP (for mitochondrial expression) or cTP (for expression in chloroplasts) in a final volume of 100 μl of CPW solution. For experiments using mTP1 (SEQ ID NO: 1), mTP2 (SEQ ID NO: 2), mTP3 (SEQ ID NO: 3), or mTP5 (SEQ ID NO: 5), peptides (scaled up from 100 ng, at four times the concentration needed to cause a DNA shift in the gel mobility shift assay (Table 7)) are combined with the pWMaadA16GFP construct (5 μg). For experiments using the remaining oTPs, peptides (30 μg) are combined with the appropriate dsDNA construct (1.5 μg). The mixture is incubated for 10 minutes at room temperature, then incubated with isolated triticale mesophyll protoplasts (500 μl, 10^6 protoplasts/ml, prepared as described in Example 2) for 1 h in the dark at room temperature. CPW solution (500 μl) is added and the mixture is incubated in the dark for 24 h. The cells are imaged using confocal microscopy, as described in Example 2, using MitoTracker® Orange staining to visualize mitochondria and chlorophyll autofluorescence to visualize chloroplasts.
(§3) cDNA is generated using a First Strand Synthesis kit (Invitrogen). RNA (1 μg) is added to each sample and the manufacturer's protocol for synthesis followed, with the exception that the volume of the reaction mixture is increased from 20 μl to 30 μl. A negRT sample containing all reagents but no RNA is included in the cDNA synthesis as a negative control.
Standard curves are generated for both elongation factor 1a (EF1a) (internal control) and green fluorescent protein (GFP) (test) genes. The EF1a curve is generated by pooling 6 μl of each cDNA sample (excluding the negRT control), then carrying out a serial dilution of 0.5 for 5 more dilutions. […]
(§4) Real time PCR reactions are performed using QuantiTect™ SYBR™ Green PCR Master Mix (Qiagen) in a 20 μl reaction volume. […]

[2] = system: proplastids of triticale microspores; experiment: qRT-PCR of gfp mRNA, microspores transfected with pWCaadA16GFP; assay type: cell-based; details: gfp reporter construct
Excerpt: as §1, with “18” for “20”, “microspores” for “protoplasts”, “levels;” for “levels.”
as §2
The dsDNA construct (pWMaadA16GFP for mitochondrial expression or pWCaadA16GFP for expression in chloroplasts) is combined with the mTP (for mitochondrial expression) or cTP (for expression in chloroplasts) in the amounts used in the protoplast transformation experiments described above in a final volume of 100 μl of NBP-99 solution. The mixture is incubated for 10 minutes at room temperature, then incubated with isolated triticale microspores (500 μl, 10^6 microspores/ml, prepared as described in Example 2) for 1 h in the dark at room temperature. NBP-99 solution (500 μl) is added and the mixture is incubated in the dark for 24 h. The cells are imaged using confocal microscopy, as described in Example 2, using MitoTracker® Orange staining to visualize mitochondria.
Microspores are disrupted using a cleaned ceramic bead and aggressive shaking as the tissue is thawing. RLT buffer/B-Me (450 μl) is added and the sample is vortexed. The sample is heated at 55° C. for 1 minute and vortexed again. RNA is extracted using an RNeasy™ Plant Mini Kit (Qiagen), incorporating on-column DNase I digestion into the protocol. The final elution volume is 40 μl. RNA is assessed using both agarose gel […] (to ensure RNA is intact) and spectrophotometry (for quantification).
as §3
Standard curves are generated for both elongation factor 1a (EF1a) (internal control) and green fluorescent protein (GFP) (test) genes. […]
as §4

In the case of “MKNPPSSFASGFGIR (listed as Oryza sativa) [cTP3]”, the “GFP expression by chloroplasts confirmed by qRT-PCR” value [1] is reported as “GFP is expressed” and the “GFP expression by proplastids confirmed by qRT-PCR” value [2] is reported as “GFP is expressed”.
